What is called ED50 is the dose that gives a 50% effect, or the effect in half of the subjects. A high value points to a need for a large dose. By LD50 is commonly meant the dose expected to kill half of the subjects tested.

In series [1] the test system is mouse. Put plainly: Analgesia, writhing test, mouse s.c. It counts as in vivo. The conditions noted are these: for ED50: sc, mouse s.c. An excerpt: (§1) The compounds of the present invention, that is, those embraced by formula I above and their non-toxic, pharmacologically acceptable acid addition salts, have useful pharmacodynamic properties. More particularly, they exert a therapeutically useful effect upon the central nervous system in warm-blooded animals, such as mice, especially analgesic and morphine-antagonistic activities, which were confirmed in the writhing test and the Haffner test. Pursuant to prevailing teachings, this agonistic/antagonistic activity spectrum points toward the absence of or a very low abuse potential.
Background: An intraperitoneal irritant provokes the stretching counted in writhing tests.

Series [2] has as its system mouse. Briefly: Morphine-antagonism, mouse (Nalorphine = 1). The format is in vivo. The conditions noted are these: for Morphine-antagonism (Nalorphine = 1): mouse, relative potency.
Description: as §1

Another series is described as follows: Toxicity, mouse, s.c. It counts as in vivo. The conditions noted are these: in vivo, sc; for LD50: mouse; for selectivity ratio: mouse s.c., LD50 / writhing ED50, read-out: Index LD50/ED50.
Series [3] deals with mouse. Briefly: Toxicity, mouse, s.c. The format is in vivo.
Series [4] has as its system withdrawn morphine dependent rats. Briefly: Suppression of abstinence symptoms in withdrawn morphine dependent rats. It counts as in vivo, rat.
Description: as §1

The test system of series [5] is withdrawn morphine dependent monkeys. Briefly: Suppression of abstinence symptoms in withdrawn morphine dependent monkeys. The format is in vivo, monkey.

With `Cc1ccoc1CN1CC[C@@]2(C)c3cc(O)ccc3C[C@@H]1[C@@H]2C` (relative stereo) [2-(3-methyl-furfuryl)-2'-hydroxy-5,9-α-dimethyl-6,7-benzomorphan], in the series on mouse [1], the ED50 is 0.6 mg/kg. Also, the antagonistic component result in the series with mouse [2] (morphine antagonism, in words) is given as “does not have the desired antagonistic component”. The “Morphine-antagonism (Nalorphine = 1)” value with mouse [2] was “inactive”. In “Toxicity, mouse, s.c.”, the LD50 was found to be 305 mg/kg and the selectivity ratio stood at 508.

Consider `C[C@H]1[C@H]2Cc3ccc(O)cc3[C@]1(C)CCN2Cc1ccno1` (relative stereo) [Example 1, 5,9-α-Dimethyl-2'-hydroxy-2-(5-isoxazolyl-methyl)-6,7-benzomorphan], for which, in the series on mouse [1], the ED50 is 0.6 mg/kg. The “analgesic activity compared with 2-furfuryl-2'-hydroxy-5,9-α-dimethyl-6,7-benzomorphan” value with mouse [1] (vs. 2-furfuryl compound) is reported as “significantly superior”. In the series on mouse [2], the “Morphine-antagonism (Nalorphine = 1)” value is on record as 0.1. Moreover, in the series “Toxicity, mouse, s.c.”, the median lethal dose (LD50) amounted to 1080 mg/kg and the selectivity ratio is 1800. Besides, the “therapeutic index compared with 2-furfuryl-2'-hydroxy-5,9-α-dimethyl-6,7-benzomorphan” value in the series with mouse [3] (vs. 2-furfuryl compound) is recorded as “significantly superior”. In addition, the “therapeutic index compared to pentazocine” value with mouse [3] (vs. pentazocine) is “far superior”. In addition, in series [4], the “suppression of abstinence symptoms” value is “not capable of suppressing the abstinence symptoms”. In series [5], the “suppression of abstinence symptoms” value is on record as “not capable of suppressing the abstinence symptoms”.

For the compound `C[C@H]1[C@H]2Cc3ccc(O)cc3[C@]1(C)CCN2Cc1ccco1` (relative stereo) [2-furfuryl-2'-hydroxy-5,9-α-dimethyl-6,7-benzomorphan], the 50% effective dose (ED50) in the series with mouse [1] was 18 mg/kg. Moreover, the “Morphine-antagonism (Nalorphine = 1)” value with mouse [2] stood at 1. Further, in “Toxicity, mouse, s.c.”, the LD50 was 292 mg/kg and the selectivity ratio is 16.

As for `CC(C)=CCN1CCC2(C)c3cc(O)ccc3CC1C2C` (stereo not shown) [Pentazocine], the ED50 with mouse [1] is 1.4 mg/kg. In the series on mouse [2], the “Morphine-antagonism (Nalorphine = 1)” value worked out at 0.025. In addition, in “Toxicity, mouse, s.c.”, the LD50 was found to be 220 mg/kg and the selectivity ratio turned out to be 157.
